Several values for one entry are separate records, joined by “and”; a condition that tells them apart may be missing. Identical values can stand only once.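 All cell lines were grown in 96-well plates and treated with compound for 48 hours. The concentration for 50% growth inhibition is given as GI50. The concentration for full growth arrest is given as TGI.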 Where a SMILES comes first, the peptide text is derived from it. [ ]: non-standard residue; d: D form. Ava = NCCCCC(=O)O; Mpa = O=C(O)CCS
Legend:
Assay in all cases: NCI tumour cell line growth inhibition, 48 h
[1] = system: HS 578T breast
[2] = system: SK-MEL-2 melanoma
[3] = system: OVCAR-3 ovarian
[4] = system: CCRF-CEM leukemia
[5] = system: SW-620 colon
[6] = system: SN12C renal
[7] = system: 786-0 renal
[8] = system: HCT-116 colon
[9] = system: HOP-62 NSCLC
[10] = system: SF-539 CNS
[11] = system: NCI/ADR-RES ovarian
[12] = system: RPMI-8226 leukemia

Row | SMILES | TGI [1] [µM] | TGI [2] [µM] | TGI [3] | TGI [4] | TGI [5] [µM] | TGI [6] [µM] | TGI [7] [µM] | TGI [8] | TGI [9] | TGI [10] | TGI [11] | TGI [12] [µM] | GI50 [3] [µM] | GI50 [4] [nM] | GI50 [6] [µM] | GI50 [8] [nM] | GI50 [9] [µM] | GI50 [10] [nM] | GI50 [11] [µM] | GI50 [12]
1 | CCCC(=O)OCC1OC(n2cc(F)c(=O)[nH]c2=O)CC1OC(=O)CCC (stereo not drawn) | > 10 | > 10 | > 10 µM | > 10 µM | > 10 | > 10 | > 10 | > 10 µM | > 10 µM | 0.281 µM | > 10 µM | > 10 | – | – | – | – | – | – | – | –
2 | CS(=O)(=O)OCCN(CCOS(C)(=O)=O)c1ccc(C=Nc2ccc(-c3csc(Cc4ccccc4)n3)cc2)c(Cl)c1 | 76.7 | > 67.9 | > 63.7 µM | > 61.2 µM | > 100 | > 100 | > 68.3 | 57.1 µM | > 55.5 µM | > 59.6 µM | > 70 µM | > 100 | – | – | – | – | – | – | – | –
3 | C/C(Cc1ccc2c(c1)OCO2)=N\N=c1\sc2ccccc2n1C | > 100 | > 100 | > 100 µM | > 100 µM | > 100 | > 100 | > 100 | > 100 µM | > 100 µM | > 100 µM | > 100 µM | > 100 | – | – | – | – | – | – | – | –
4 | Nc1cc(C2CCCc3c2[nH]c2ccccc32)ccc1O (stereo not drawn) | > 100 | > 100 | > 100 µM | > 100 µM | > 100 | > 100 | > 100 | > 100 µM | > 100 µM | > 100 µM | > 100 µM | 54.9 | – | – | – | – | – | – | – | –
5 | O=C(N/N=C\c1ccc(Cl)cc1)Nc1ccc2ccccc2c1 | 76.9 | > 100 | > 100 µM | > 100 µM | > 100 | > 100 | 38.4 | > 100 µM | 51.3 µM | 75.7 µM | > 100 µM | > 100 | – | – | – | – | – | – | – | –
6 | O=S1(=O)OCCOS(=O)(=O)C1(F)Cc1ccccc1 | > 100 | > 100 | > 100 µM | > 100 µM | > 100 | > 100 | > 100 | > 100 µM | > 100 µM | > 100 µM | > 100 µM | > 100 | – | – | – | – | – | – | – | –
7 | COc1cc2ncnc(NS(=O)(=O)c3cc4ccccc4s3)c2cc1OC | > 100 | > 100 | > 100 µM | > 100 µM | > 100 | > 100 | > 100 | > 100 µM | > 100 µM | > 100 µM | > 100 µM | > 100 | – | – | – | – | – | – | – | –
8 | Nc1cc(OCC2CCCCC2)nc(N)n1 | > 100 | > 100 | > 100 µM | > 100 µM | > 100 | > 100 | > 100 | > 100 µM | > 100 µM | > 100 µM | > 100 µM | > 100 | – | – | – | – | – | – | – | –
9 | Cc1cccc2c(=O)c3cccc([C@H](C)C(=O)O)c3oc12 | > 100 | > 100 | > 100 µM | > 100 µM | > 100 | > 100 | > 100 | > 100 µM | > 100 µM | > 100 µM | > 100 µM | > 100 | – | – | – | – | – | – | – | –
10 | C(=N\NC1=NCCCCN1)/c1ccc2ccccc2c1 | > 100 | 46.7 | > 100 µM | > 100 µM | 52.4 | > 100 | 67.9 | > 100 µM | > 100 µM | 51.3 µM | > 100 µM | 76.1 | – | – | – | – | – | – | – | –
11 | Cc1cc2ncn(CC(=O)O)c2cc1C | > 100 | > 100 | > 100 µM | > 100 µM | > 100 | > 100 | > 100 | > 100 µM | > 100 µM | > 100 µM | > 100 µM | > 100 | – | – | – | – | – | – | – | –
12 | Nc1cc(CO)cc(Nc2c3ccccc3nc3ccccc23)c1 | 67.8 | 30.5 | 32.2 µM | > 100 µM | 26 | 35.9 | 30.4 | 28.5 µM | 28.8 µM | 32 µM | 35.8 µM | > 100 | – | – | – | – | – | – | – | –
13 | CCO/N=C\c1ccc2oc(-c3ccccc3)cc(=O)c2c1 | 42.8 | 4.54 | 0.913 µM | 26 µM | > 100 | 11.5 | 17.7 | 8.23 µM | 28.7 µM | 2.86 µM | 0.436 µM | 9.42 | – | – | – | – | – | – | – | –
14 | CC(NC(=O)CCS)C(=O)NC(C)C(=O)NC(Cc1c[nH]c2ccccc12)C(=O)NC(Cc1c[nH]cn1)C(=O)NC(CO)C(=O)NC(Cc1c[nH]c2ccccc12)C(=O)NCCCCC(=O)NC(C)C(=O)NC(CCC(N)=O)C(=O)NC(CCCCN)C(=O)NC(C)C(=O)NC(CCCNC(=N)N)C(=O)NC(CCCCN)C(N)=O (stereo not drawn) ([Mpa]AAWHSW[Ava]AQKARK-NH2; configuration not given here) | > 100 | > 100 | > 100 µM | > 100 µM | > 100 | > 100 | > 100 | > 100 µM | > 100 µM | > 100 µM | > 100 µM | > 100 | – | – | – | – | – | – | – | –
15 | COc1cc(/C=C/C(=O)CC(=O)/C=C/c2cc(C)c(O)c(OC)c2)cc(C)c1O | > 100 | > 100 | > 100 µM | > 100 µM | > 100 | > 100 | > 100 | > 100 µM | > 100 µM | > 100 µM | > 100 µM | > 100 | – | – | – | – | – | – | – | –
16 | COc1ccc2[nH]c3ccc4cc[n+](CCN5CCC(C6CCN(CC[n+]7ccc8ccc9[nH]c%10ccc(OC)cc%10c9c8c7)CC6)CC5)cc4c3c2c1 | 50 | > 90.7 | 50 µM and > 76.2 µM | 25.4 µM and 16.8 µM | > 36.9 | 50 | 50 | 50 µM and > 57.1 µM | 50 µM and > 100 µM | 50 µM and > 100 µM | 50 µM and > 46.4 µM | – | 42.6 | 566 | 8.76 | 374 | 34.4 | 1260 | 35.2 | 367 nM and 443 nM
17 | COC(=O)[C@@]12CSC[C@]1(C(=O)OC)N[C@@H](c1ccccc1O)C2 | > 100 | > 100 | > 100 µM | > 100 µM | > 100 | > 100 | > 100 | > 100 µM | > 100 µM | > 100 µM | > 100 µM | > 100 | – | – | – | – | – | – | – | –
18 | CCN(CC)Cc1cc(N=Nc2c(O)ccc3c(N=Nc4ccc(O)c(CN(CC)CC)c4)c(O)ccc23)ccc1O | > 38.7 | > 51.6 | > 20.7 µM | > 53.3 µM | 15.2 | 17.6 | 3.75 | 4.38 µM | 15.2 µM | 9.2 µM | 33 µM | 19 | – | – | – | – | – | – | – | –
19 | Cc1ccc(C(=O)Nc2ccc(S(=O)(=O)O)c3cc(S(=O)(=O)O)cc(S(=O)(=O)O)c23)cc1NC(=O)c1cccc(NC(=O)Nc2cccc(C(=O)Nc3cc(C(=O)Nc4ccc(S(=O)(=O)O)c5cc(S(=O)(=O)O)cc(S(=O)(=O)O)c45)ccc3C)c2)c1 | > 100 | > 100 | > 100 µM | > 100 µM | > 100 | > 100 | > 100 | > 100 µM | > 100 µM | > 100 µM | > 100 µM | > 100 | – | – | – | – | – | – | – | –
20 | CC(C#N)(NO)C(C)(C#N)NO (stereo not drawn) | > 100 | > 100 | > 100 µM | > 100 µM | > 100 | > 100 | > 100 | > 100 µM | – | > 100 µM | > 100 µM | > 100 | – | – | – | – | – | – | – | –
21 | Cc1cn(S(=O)(=O)c2ccccc2)c2c(OCc3ccccc3)cc([N+](=O)[O-])cc12 | > 100 | > 100 | > 100 µM | > 100 µM | > 100 | > 100 | > 100 | > 100 µM | – | > 100 µM | > 100 µM | > 100 | – | – | – | – | – | – | – | –
22 | O=C(CCCc1cccc2[nH]c3c(c12)CN(Cc1ccccc1)CC3)c1ccc(F)cc1 | > 100 | > 100 | > 100 µM | > 100 µM | > 100 | > 100 | > 100 | > 100 µM | > 52.6 µM | > 100 µM | > 100 µM | > 95.1 | – | – | – | – | – | – | – | –
23 | O=C(O)c1ccc2c(O)c(O)ccc2c1 | 70.9 | 67.3 | 34.5 µM | > 31.6 µM | > 100 | 27.7 | 43.9 | 79.7 µM | 41 µM | > 100 µM | 55.3 µM | 40.2 | – | – | – | – | – | – | – | –
24 | COc1c(C(=O)/C(=N/Nc2ccc(C(=O)O)cc2)C(C)=O)c(O)cc2occc12 | > 100 | > 100 | > 100 µM | > 100 µM | > 100 | > 100 | > 100 | > 100 µM | > 100 µM | > 100 µM | > 100 µM | > 100 | – | – | – | – | – | – | – | –
25 | CC1=NNC(=O)C1C1(C(=O)O)CC(c2c[nH]c3ccccc23)=NC(=S)N1 (stereo not drawn) | 47.7 | 81.2 | 65.8 µM | 64.1 µM | > 100 | > 100 | > 100 | > 100 µM | > 100 µM | 67.9 µM | > 100 µM | 84.5 | – | – | – | – | – | – | – | –
26 | CN1C/C(=C\c2cccs2)C2=NN(c3ccccc3)C(c3cccs3)C2C1 (stereo not drawn) | > 100 | > 100 | > 21.8 µM | 5.95 µM | > 100 | > 100 | > 44.7 | > 35.7 µM | > 100 µM | > 100 µM | > 100 µM | > 100 | – | – | – | – | – | – | – | –
27 | O=C(Nc1ccccc1C(=O)NCc1ccccc1)/C(=C/c1ccccc1O)NC(=O)c1ccccc1 | > 100 | > 100 | > 100 µM | > 100 µM | > 100 | > 100 | > 100 | > 100 µM | > 100 µM | > 100 µM | > 100 µM | > 100 | – | – | – | – | – | – | – | –
28 | COc1ccc(SCc2cc(OC)ccc2OC)cc1 | 97.7 | > 88.8 | > 91.7 µM | > 96.4 µM | > 100 | > 100 | > 100 | > 100 µM | > 100 µM | > 100 µM | > 100 µM | > 100 | – | – | – | – | – | – | – | –
29 | CC(=O)C1=C(C)N(c2ccccc2)C2(O)C3=C(C(=O)c4ccccc4C3=O)C(O)=CC12Cl (stereo not drawn) | 15.2 | 22.2 | > 100 µM | 62.5 µM | > 100 | 24 | > 100 | > 100 µM | 80.1 µM | 15.6 µM | > 100 µM | 4.39 | – | – | – | – | – | – | – | –

— PubChem BioAssay (NCI)
